One molecule from article PMC12190436, “5-Ene-2-arylaminothiazol-4(5H)-ones Induce Apoptosis in Breast Cancer Cells” (Cells, 2025) can be followed below.

Bounds are passed on as bounds.

In one assay the test system is MDA-MB-231. The experiment in a line: MTT cell viability assay. The format is cell-based. The following applies: Homo sapiens. From the text:
(§1) All of the tested cell lines were acquired from the American Type Culture Collection (ATCC, Manassas, VA, USA), including human breast cancer cell lines (MCF-7, MDA-MB-231), human gastric cancer cell line (AGS), human colorectal cancer cell lines (HT-29, DLD-1), human glioblastoma cancer cell lines (T98G, A172), mouse astrocyte type I clone (C8-D1A), human normal epithelial breast cells (MCF-10A) and primary dermal fibroblast (HDFa). Such cell lines as AGS, MCF-7, MDA-MB-231, A172, T98G, C8-D1A, and primary dermal fibroblast (HDFa) were cultured in complete medium–DMEM (Corning, Kennebunk, ME, USA). RPMI-1640 (ATCC, Manassas, VA, USA) was used for the DLD-1 cell line, and McCoy’s 5A (PAN-Biotech, Aidenbach, Germany) for the HT-29 cell line. To all utilized media additionally was added 10% fetal bovine serum (FBS) (Eurx, Gdansk, Poland) and 1% penicillin and streptomycin solution (Corning, Kennebunk, ME, USA). MCF-10A cells were incubated in MEGM (Mammary Epithelial Cell Growth Medium) BulletKit supplemented with penicillin/streptomycin cocktail and 5% horse serum. All cells were cultured at 37 °C in an atmosphere with 5% CO₂ in tissue culture dishes (Sarstedt, Numbrecht, Germany). For experiments, cells were washed with phosphate-buffered saline (PBS) (Corning, Kennebunk, ME, USA) followed by the addition of 0.05% trypsin with 0.02% EDTA (Corning, Kennebunk, ME, USA). Scepter 3.0 cell counter (Merck Millipore, Burlington, MA, USA) was applied before each seeding to calculate the number of cells. For the next analyses, cells were reseeded in 6-well plates, 24-well plates, and 96-well plates.
(§2) MTT (3-(4,5-dimethylthiazol-2-yl)-2,5-diphenyltetrazolium bromide) assay method was utilized to analyze compound effects on cell viability. All cell lines were seeded in 96-well plates with 1 × 10^4 cells per well. After 24 h, cells were treated with the tested compounds and reference drug at concentrations of 0.1, 1, 2.5, 5, 10, and 20 µM for 24, 48, or 72 h. Next, a solution of 3-(4,5-dimethyl-2-thiazolyl)-2,5-diphenyl-2H-tetrazolium bromide (Sigma-Aldrich, St. Louis, MO, USA) in PBS with a concentration of 5 mg/mL was prepared. After the incubation with tested compounds, 10 µL of the prepared MTT solution was applied to each well, followed by 2 h of incubation at 37 °C. Next, cells underwent lysis by adding 100 µL of pre-prepared lysing buffer (containing 25 mM HCl, 2% acetic acid, 3% DMF, and 5% SDS, with a pH of 4.7). The absorbance was measured using a UV-VIS Helios Gamma (Unicam/ThermoFisher Scientific Inc., Cleveland, OH, USA) at 570 nm wavelength. The cells incubated with vehicle substance (0.1% DMSO) were taken as controls.
(§3) To investigate the cytotoxic potential of the newly synthesized compounds, a comprehensive assessment was conducted utilizing the MTT assay. This assay was applied on a diverse panel of cell lines, such as human breast cancer cell lines (MCF-7 and MDA-MB-231), human gastric cancer cell line (AGS), human colorectal cancer cell lines (HT-29 and DLD-1), human glioblastoma cancer cell lines (T98G and A172), mouse astrocyte type I clone cells (C8-D1A), primary dermal fibroblast (HDFa), and human normal breast cells (MCF-10A) for 24, 48, and/or 72 h.

The next assay concerns DLD-1. The experiment in a line: MTT cell viability assay. It counts as cell-based. The settings on record: Homo sapiens.
Source text: as §1, §2, §3
For orientation: Tetrazolium dyes change colour on reduction, which living cells bring about.

Another assay deals with AGS. Nature of the assay: MTT cell viability assay. It counts as cell-based. The following applies: Homo sapiens.
Source text: as §1, §2, §3

In the next assay the test system is MCF-7. The experiment in a line: MTT cell viability assay. It counts as cell-based. The following applies: Homo sapiens.
Source text: as §1, §2, §3

A further assay relates to T98G. Nature of the assay: MTT cell viability assay. It counts as cell-based. The following applies: Homo sapiens.
Source text: as §1, §2, §3

For the next assay, the system named is HT-29. Nature of the assay: MTT cell viability assay. It counts as cell-based. The following applies: Homo sapiens.
Source text: as §1, §2, §3

A further assay relates to A172. Nature of the assay: MTT cell viability assay. It counts as cell-based. The settings on record: Homo sapiens.
Source text: as §1, §2, §3

Assay [1] relates to Primary Dermal Fibroblast (HDFa). Nature of the assay: MTT cell viability assay. It counts as cell-based. The settings on record: Homo sapiens, normal cells.
Source text: as §1, §2, §3

A further assay has as its system MCF-7 cells. Nature of the assay: Annexin V-FITC/propidium iodide flow cytometry. It counts as cell-based, human. The following applies: 24 h. How it is done:
The MCF-7 cells were seeded on 6-well plates (1 × 10^5 cells per well) and incubated for 24 h. Afterwards, the cells were washed, and tested compounds (Les-6416, Les-6418, Les-6381, Les-6423, and Les-6424) were added in a concentration of 5 µM. The reference drug doxorubicin hydrochloride was applied in a concentration of 0.5 µM. The cells were incubated with the compounds for 24 h. Afterwards, the cells were washed several times with cold PBS and the cell suspensions were prepared in the binding buffer from the kit at a concentration of 1 × 10^6 cells/mL. A total of 100 µL of suspension was collected from each sample and transferred to the tubes. After that, 5 µL of Annexin V-FITC and 5 µL of propidium iodide were added. After 15 min of incubation at room temperature in a dark environment, the content of the tubes was filled with binding buffer up to 500 µL and assessed by BD FACSCanto II flow cytometer (Becton Dickinson Biosciences, San Jose, CA, USA). A total of 1 × 10^4 events were measured for each sample. The results were investigated by applying FACSDiva software Version 6.1.3. (BD Biosciences Systems, San Jose, CA, USA).
To assess the effects of novel compounds on apoptosis, we utilized flow cytometry analysis with Annexin V-FITC and Propidium Iodide double staining. In this way, we could distinguish between different cell populations based on their state: unstained or alive cells, cells stained with propidium iodide or necrotic cells, cells only stained with FITC-labeled annexin V or early apoptotic cells, and cells stained with both annexin V and propidium iodide or late apoptotic cells.
A general note: In flow cytometry, cells or beads pass a laser one at a time.

Broadly, the IC50 is the concentration at which inhibition is half-maximal. Lower therefore signals inhibition by little substance. Consider `COc1cc(NC2=NC(=O)C(=Cc3ccco3)S2)cc(OC)c1OC` [Les-6424, 5-(Furan-2-ylmethylene)-2-((3,4,5-trimethoxyphenyl)amino)thiazol-4(5H)-one], for which the IC50 in the assay with MDA-MB-231 (MDA-MB-231 24 h), in the assay on MDA-MB-231 (MDA-MB-231 48 h), in the assay with MDA-MB-231 (MDA-MB-231 72 h), with DLD-1 (DLD-1 24 h), with DLD-1 (DLD-1 48 h) and in the assay with AGS (AGS 24 h) was above 20 µM each time. The IC50 is above 20 µM with AGS (AGS 48 h); above 20 µM in the assay with MCF-7 (MCF7, MCF-7 24 h); above 20 µM in the assay with MCF-7 (MCF7, MCF-7 48 h); above 20 µM in the assay with MCF-7 (MCF7, MCF-7 72 h); above 20 µM in the assay with T98G (T98G 24 h); above 20 µM with T98G (T98G 48 h). Moreover, the IC50 with HT-29 (HT-29 24 h) was above 20 µM; in the assay on HT-29 (HT-29 48 h), above 20 µM; in the assay with A172 (A 172, A172 24 h), above 20 µM; in the assay on A172 (A 172, A172 48 h), above 20 µM; in assay [1] (HDFa 24 h), above 20 µM; in assay [1] (HDFa 48 h), above 20 µM. In assay [1] (HDFa 72 h), this molecule gave an IC50 above 20 µM. In addition, the “proapoptotic effect in comparison to the control” value in the assay on MCF-7 cells (5 µM) is on record as “did not have any statistically significant results”. The viability at 5 µM in the assay on MCF-7 cells (Homo sapiens, MCF7, 5 µM, read-out: Viable cells, cell population) was 90.4%.
